Consider 4 sequences from patent US20160320408A1, “METHODS OF T CELL EPITOPE PROFILING, MAKING T CELL COMPOSITIONS, AND TREATING DISEASES” (priority 2013, published 2016).

Holding throughout (assay type): cell-based, human
Test [1] concerns PBMC from a healthy donor.
The subject of test [2] is donor cells (PBMC).
Test [3] concerns PBMC from a healthy donor. The source holds these as a separate data set.

As to DIKNDLYEKTLNDYKAIANK [TT1], in test [1], the “IFNγ over a positivity threshold set at 2.5-fold above the negative control (no peptide) cultures” value was 0 pg/mL.
Consider IDKISDVSTIVPYIGPALNI [TT4], for which, in test [2], the “generation of peptide-reactive T-cell line (in words)” value is “successfully generated”. In test [1], the “IFNγ response (in words)” value is on record as “only one operator (HK) detecting a robust response”.
IVVYNLQSKITLPNDRTTPV [TT2]: the “IFNγ over a positivity threshold set at 2.5-fold above the negative control (no peptide) cultures” value in test [1] came to 0 pg/mL.
In the case of NLVPMVATV [CMVpp65], the “detection of IFNγ secreting T-cells, direct ex vivo ELISpot (in words)” value in test [3] is reported as “readily detectable”.
